Patent publication US20210255193A1, “LYSINE REACTIVE PROBES AND USES THEREOF” (The Scripps Research Institute, priority 2017, published 2021)
One block for each compound: values may come before it.

Assays:
[1] = target: T1, RTN3 Reticulon-3 (Homo sapiens, UniProt O95197); test: competitive isoTOP-ABPP; format: binding; settings: 50 uM, in vitro; for isoTOP-ABPP ratio (R) at liganded lysine O95197_K1022: sol, 231; for isoTOP-ABPP reactivity ratio at lysine O95197_K1022: 231 sol
T1 construct: isoTOP-ABPP experiments performed in cell lysates (in vitro); endogenous in cells; host or cells: MDA-MB-231 soluble lysate
T1 sequence (O95197 1-1032): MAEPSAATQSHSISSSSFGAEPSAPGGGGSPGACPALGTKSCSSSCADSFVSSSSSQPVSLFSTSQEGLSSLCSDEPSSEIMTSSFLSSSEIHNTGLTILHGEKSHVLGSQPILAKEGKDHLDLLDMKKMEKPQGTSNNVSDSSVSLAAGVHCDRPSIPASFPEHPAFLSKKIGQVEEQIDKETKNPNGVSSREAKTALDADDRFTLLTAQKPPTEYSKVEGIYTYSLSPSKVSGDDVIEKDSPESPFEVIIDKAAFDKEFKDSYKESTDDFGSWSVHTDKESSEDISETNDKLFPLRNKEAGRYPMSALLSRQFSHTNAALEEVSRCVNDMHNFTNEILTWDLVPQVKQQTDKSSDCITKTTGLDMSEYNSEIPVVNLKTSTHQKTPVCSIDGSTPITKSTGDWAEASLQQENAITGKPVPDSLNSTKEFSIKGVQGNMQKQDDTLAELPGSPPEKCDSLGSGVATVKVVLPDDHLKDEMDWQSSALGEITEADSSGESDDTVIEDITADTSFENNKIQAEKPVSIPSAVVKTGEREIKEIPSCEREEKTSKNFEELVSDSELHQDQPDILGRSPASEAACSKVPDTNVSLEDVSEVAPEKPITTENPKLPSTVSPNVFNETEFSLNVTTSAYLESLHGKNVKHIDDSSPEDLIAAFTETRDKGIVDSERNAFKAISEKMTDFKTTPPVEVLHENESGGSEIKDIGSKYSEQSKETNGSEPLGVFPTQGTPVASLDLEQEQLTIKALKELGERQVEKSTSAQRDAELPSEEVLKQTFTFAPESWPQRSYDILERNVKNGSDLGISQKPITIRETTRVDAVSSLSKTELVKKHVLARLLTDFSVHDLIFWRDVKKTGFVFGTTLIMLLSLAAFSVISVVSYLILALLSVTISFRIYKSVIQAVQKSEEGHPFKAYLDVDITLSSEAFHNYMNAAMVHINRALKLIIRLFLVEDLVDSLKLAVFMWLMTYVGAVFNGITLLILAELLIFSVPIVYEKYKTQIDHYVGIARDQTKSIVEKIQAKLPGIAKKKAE
How it was run: (§1)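 Readout: isotopic light/heavy MS1 peak-area ratio (R, DMSO heavy over compound light), median across peptides sharing a modified lysine. Lysate received fragment (activated esters 50 μM, guanidinylating agents 100 μM final) or DMSO, then 0.1 mM STP-alkyne probe for 1 h at ambient temperature.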

[2] = target: T2, HAUS4 HAUS augmin-like complex subunit 4 (Homo sapiens, UniProt Q9H6D7); test: competitive isoTOP-ABPP; format: binding; settings: for isoTOP-ABPP reactivity ratio at lysine Q9H6D7_K271 / R value (DMSO/fragment) for probe 1 labeling / isoTOP-ABPP ratio (R) at liganded lysine Q9H6D7_K271: 50 uM, in vitro; for isoTOP-ABPP reactivity ratio at lysine Q9H6D7_K271 / R value (DMSO/fragment) for probe 1 labeling: 231 sol; for R value (DMSO/fragment) for probe 1 labeling: Q9H6D7_K271; for isoTOP-ABPP ratio (R) at liganded lysine Q9H6D7_K271: sol, 231
T2 construct: endogenous in cells; host or cells: MDA-MB-231 (soluble fraction of lysate)
T2 sequence (Q9H6D7 1-363): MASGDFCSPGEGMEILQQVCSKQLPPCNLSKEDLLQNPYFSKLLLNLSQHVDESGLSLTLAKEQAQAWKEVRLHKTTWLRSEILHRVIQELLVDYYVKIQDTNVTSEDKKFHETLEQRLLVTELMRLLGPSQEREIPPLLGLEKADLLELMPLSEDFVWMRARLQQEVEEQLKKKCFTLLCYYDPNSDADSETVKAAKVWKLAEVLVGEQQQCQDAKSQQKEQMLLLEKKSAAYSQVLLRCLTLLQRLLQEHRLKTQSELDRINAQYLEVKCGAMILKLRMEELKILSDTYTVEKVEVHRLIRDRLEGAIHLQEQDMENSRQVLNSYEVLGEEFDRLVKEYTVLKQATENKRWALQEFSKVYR
How it was run: as §1

SMILES: O=C(Oc1ccc([N+](=O)[O-])cc1[N+](=O)[O-])C(c1ccccc1)(c1ccccc1)c1ccccc1 [fragment 42, 2,4-Dinitrophenyl 2,2,2-triphenylacetate]
isoTOP-ABPP ratio (R) at liganded lysine O95197_K1022 [1]: 1.1

SMILES: CC(C)(C)OC(=O)NCCCC(=O)Oc1ccc([N+](=O)[O-])cc1[N+](=O)[O-] [fragment 41, 2,4-Dinitrophenyl 4-((tert-butoxycarbonyl)amino)butanoate]
isoTOP-ABPP ratio (R) at liganded lysine O95197_K1022 [1]: 1.6

SMILES: O=C(CCc1cn(-c2ccccc2)nc1-c1ccccc1)Oc1ccc([N+](=O)[O-])cc1[N+](=O)[O-] [fragment 29, 2,4-Dinitrophenyl 3-(1,3-diphenyl-1H-pyrazol-4-yl)propanoate]
isoTOP-ABPP reactivity ratio at lysine O95197_K1022 [1]: 6.2

SMILES: Cn1cc(CC(=O)Oc2ccc([N+](=O)[O-])cc2[N+](=O)[O-])c2ccccc21 [fragment 32, 2,4-Dinitrophenyl 2-(1-methyl-1H-indol-3-yl)acetate]
isoTOP-ABPP reactivity ratio at lysine Q9H6D7_K271 [2]: 1.0

SMILES: O=C(CCc1ccc2c(c1)OCO2)Oc1ccc([N+](=O)[O-])cc1[N+](=O)[O-] [fragment 45, 2,4-Dinitrophenyl 3-(benzo[d][1,3]dioxol-5-yl)propanoate]
isoTOP-ABPP ratio, lysine Q9H6D7_K271 ([2]; 50 uM_231_sol_in vitro): 1.1

R value (DMSO/fragment) for probe 1 labeling [2]: 0.9
SMILES: Cn1cc(CC(=O)Oc2c(F)c(F)c(F)c(F)c2F)c2ccccc21 [fragment 22, Pentafluorophenyl 2-(1-methyl-1H-indol-3-yl)acetate]

isoTOP-ABPP reactivity ratio at lysine Q9H6D7_K271 [2]: 0.8
SMILES: O=C(Oc1c(F)c(F)c(F)c(F)c1F)C1CCN(C(=O)OCc2ccccc2)CC1 [fragment 24, 1-Benzyl 4-(pentafluorophenyl) piperidine-1,4-dicarboxylate]

R value (DMSO/fragment) for probe 1 labeling [2]: 0.7
SMILES: O=C(Oc1c(F)c(F)c(F)c(F)c1F)C(c1ccccc1)c1ccccc1 [fragment 20, Pentafluorophenyl 2,2-diphenylacetate]

isoTOP-ABPP ratio, lysine Q9H6D7_K271 ([2]; 100 uM_231_sol_in vitro): 4.3
SMILES: CC(C)(C)OC(=O)N=C(NC(=O)OC(C)(C)C)n1cccn1 [fragment 50, reference compound]

SMILES: O=C(Oc1ccc([N+](=O)[O-])cc1[N+](=O)[O-])c1ccccc1Nc1cccc(C(F)(F)F)c1 [fragment 40, 2,4-Dinitrophenyl 2-((3-(trifluoromethyl)phenyl)amino)benzoate]
isoTOP-ABPP ratio (R) at liganded lysine Q9H6D7_K271 [2]: 0.7
isoTOP-ABPP ratio (R) at liganded lysine O95197_K1022 [1]: 1.7

SMILES: N#Cc1ccc(C(=O)Oc2ccc([N+](=O)[O-])cc2[N+](=O)[O-])cc1 [fragment 44, 2,4-Dinitrophenyl 4-cyanobenzoate]
isoTOP-ABPP ratio, lysine Q9H6D7_K271 ([2]; 50 uM_231_sol_in vitro): 0.9

SMILES: O=C(Oc1ccc([N+](=O)[O-])cc1[N+](=O)[O-])C(c1ccccc1)c1ccccc1 [fragment 30, 2,4-Dinitrophenyl 2,2-diphenylacetate]
isoTOP-ABPP reactivity ratio at lysine Q9H6D7_K271 [2]: 1.0
isoTOP-ABPP reactivity ratio at lysine O95197_K1022 [1]: 20.0

SMILES: O=C(Oc1ccc([N+](=O)[O-])cc1[N+](=O)[O-])c1ccc(-c2ccccc2)cc1 [fragment 37, 2,4-Dinitrophenyl [1,1′-biphenyl]-4-carboxylate]
isoTOP-ABPP ratio (R) at liganded lysine Q9H6D7_K271 [2]: 0.7

SMILES: COc1cc(CCC(=O)Oc2ccc([N+](=O)[O-])cc2[N+](=O)[O-])cc(OC)c1OC [fragment 33, 2,4-Dinitrophenyl 3-(3,4,5-trimethoxyphenyl)propanoate]
isoTOP-ABPP reactivity ratio at lysine O95197_K1022 [1]: 1.4

isoTOP-ABPP reactivity ratio at lysine O95197_K1022 [1]: 1.2
SMILES: CCn1cc(C(=O)Oc2c(F)c(F)c(F)c(F)c2F)c(=O)c2ccc(C)nc21 [fragment 28, Pentafluorophenyl 1-ethyl-7-methyl-4-oxo-1,4-dihydro-1,8-naphthyridine-3-carboxylate]
